# Reference: patent US9718819B2 (Merck Sharp & Dohme Corp., priority 2012, dated 2017)
# Biological target: HIV-1 RT wild-type enzyme (Human immunodeficiency virus type 1 group M subtype B (isolate HXB2) (HIV-1), UniProt P04585)
# Assay: HIV-1 reverse transcriptase inhibitory activity (RT polymerase assay)
# Assay type: biochemical
# Conditions: HIV-1 RT wild-type enzyme 83 pM; RNA-dependent DNA polymerase activity; read-out: IC50
# Experimental: Determination of HIV-1 Reverse Transcriptase Inhibitory Activity
# The heterodimeric nucleic acid substrate used in the HIV-1 RT polymerase reactions was generated by annealing the DNA primer, biotinylated pD500 (Sigma Aldrich, USA, 5′-biotin-ttg aaa tga ctg cgg tac ggc-3′), SEQ ID NO. 1 to the nucleotide RNA template t500 (derived from hepatitis C virus [HCV] sequence, IBA, Germany, 5′-[…]-3′), SEQ ID NO 2). […] The mixture was then preincubated on an orbital shaker for 30 min at room temperature in microtiter plates (Costar 3365, Corning, USA). A polymerization reaction was initiated by the addition of RNA template/pD500 DNA primer hybrid (16.6 nM final of RNA/DNA hybrid) and dNTPs (2 μM dATP, dGTP, dCTP and 66.6 nM Ru-dUTP (Meso Scale Discovery, USA)). Plate was sealed and incubated for 5-10 min at room temperature on an orbital shaker. Plate was then incubated for 90 min at 37° C. and reactions quenched with 60 μl quenching buffer (50 mM EDTA, 0.7% BSA, 0.7% Tween-20, 0.017% sodium azide in PBS). The resulting solution was incubated at room temperature for an additional 5 min and then 50 μL was transferred to pre-blocked Avidin plates (L15AA, Meso Scale Discovery). Each well of Avidin plate was blocked for 1 h at room temperature with 100 μL 5% BSA in PBS. Blocking solution was removed by tapping vigorously on filter paper to remove all excess liquid. Reaction on pre-blocked avidin plate proceeded for 60 min at room temperature and then contents removed by tapping vigorously on filter paper to remove all excess liquid. After washing plate 3 times with 150 μL 1×PBS and blotting dry between cycles, 150 μL 1× Read Buffer T (4× Read Buffer T, Meso Scale Discovery) was added and incubated for 5 min at room temperature before counting on a Sector Imager […] (Meso Scale Discovery). Titration curves and IC50 values were calculated using a four parameter logisitc fit according to standard procedures. Briefly, % Inhibition=100×((sample raw value)−(mean value of the low control or 0% inhibition))/((mean value of wells representing 100% inhbition)−(mean value of 0% inhbition)). In this assay, low control wells contain DMSO (0% inhbition) and 100% inhibition wells contain 1 μM efavirenz.
row,SMILES,IC50
1,"N#Cc1cc(Cl)cc(Oc2c(C(F)(F)F)ncn(Cc3cc(-c4cc(F)ccc4F)c(=O)[nH]n3)c2=O)c1 [Example 48, 3-chloro-5-((1-((5-(2,5-difluorophenyl)-6-oxo-1,6-dihydropyridazin-3-yl)methyl)-6-oxo-4-(trifluoromethyl)-1,6-dihydropyrimidin-5-yl)oxy)benzonitrile]",9 nM
2,Cc1ccc(F)cc1-c1cc(Cn2cnc(C(F)(F)F)c(Oc3cc(Cl)cc(C#N)c3)c2=O)n[nH]c1=O [Example 50],165 nM
3,"COc1cccc(F)c1-c1cc(Cn2cnc(C(F)(F)F)c(Oc3cc(Cl)cc(C#N)c3)c2=O)n[nH]c1=O [Example 51, 3-chloro-5-((1-((5-(2-fluoro-6-methoxyphenyl)-6-oxo-1,6-dihydropyridazin-3-yl)methyl)-6-oxo-4-(trifluoromethyl)-1,6-dihydropyrimidin-5-yl)oxy)benzonitrile]",358 nM
4,"COc1ccc(-c2cc(Cn3cnc(C(F)(F)F)c(Oc4cc(Cl)cc(C#N)c4)c3=O)n[nH]c2=O)cc1F [Example 52, 3-chloro-5-((1-((5-(3-fluoro-4-methoxyphenyl)-6-oxo-1,6-dihydropyridazin-3-yl)methyl)-6-oxo-4-(trifluoromethyl)-1,6-dihydropyrimidin-5-yl)oxy)benzonitrile]",4 nM
5,"CC(C)(C)c1ccc(-c2cc(Cn3cnc(C(F)(F)F)c(Oc4cc(Cl)cc(C#N)c4)c3=O)n[nH]c2=O)cc1 [Example 53, 3-((1-((5-(4-(tert-butyl)phenyl)-6-oxo-1,6-dihydropyridazin-3-yl)methyl)-6-oxo-4-(trifluoromethyl)-1,6-dihydropyrimidin-5-yl)oxy)-5-chlorobenzonitrile]",70 nM
6,"N#Cc1cc(Cl)cc(Oc2c(C(F)(F)F)ncn(Cc3cc(-c4cccc(C#N)c4)c(=O)[nH]n3)c2=O)c1 [Example 54, 3-chloro-5-((1-((5-(3-cyanophenyl)-6-oxo-1,6-dihydropyridazin-3-yl)methyl)-6-oxo-4-(trifluoromethyl)-1,6-dihydropyrimidin-5-yl)oxy)benzonitrile]",8 nM
7,"N#Cc1cc(Cl)cc(Oc2c(C(F)(F)F)ncn(Cc3cc(-c4cc(F)c(F)c(F)c4)c(=O)[nH]n3)c2=O)c1 [Example 55, 3-chloro-5-((6-oxo-1-((6-oxo-5-(3,4,5-trifluorophenyl)-1,6-dihydropyridazin-3-yl)methyl)-4-(trifluoromethyl)-1,6-dihydropyrimidin-5-yl)oxy)benzonitrile]",11 nM
8,"Cc1cc(F)ccc1-c1cc(Cn2cnc(C(F)(F)F)c(Oc3cc(Cl)cc(C#N)c3)c2=O)n[nH]c1=O [Example 56, 3-chloro-5-((1-((5-(4-fluoro-2-methylphenyl)-6-oxo-1,6-dihydropyridazin-3-yl)methyl)-6-oxo-4-(trifluoromethyl)-1,6-dihydropyrimidin-5-yl)oxy)benzonitrile]",76 nM
9,"N#Cc1cc(Cl)cc(Oc2c(C(F)(F)F)ncn(Cc3cc(-c4cccc5c4OCC5)c(=O)[nH]n3)c2=O)c1 [Example 57, 3-chloro-5-((1-((5-(2,3-dihydrobenzofuran-7-yl)-6-oxo-1,6-dihydropyridazin-3-yl)methyl)-6-oxo-4-(trifluoromethyl)-1,6-dihydropyrimidin-5-yl)oxy)benzonitrile]",11 nM
10,"Cc1ccc(-c2cc(Cn3cnc(C(F)(F)F)c(Oc4cc(Cl)cc(C#N)c4)c3=O)n[nH]c2=O)cc1F [Example 58, 3-chloro-5-((1-((5-(3-fluoro-4-methylphenyl)-6-oxo-1,6-dihydropyridazin-3-yl)methyl)-6-oxo-4-(trifluoromethyl)-1,6-dihydropyrimidin-5-yl)oxy)benzonitrile]",4 nM
11,"COc1ccc(F)cc1-c1cc(Cn2cnc(C(F)(F)F)c(Oc3cc(Cl)cc(C#N)c3)c2=O)n[nH]c1=O [Example 59, 3-chloro-5-((1-((5-(5-fluoro-2-methoxyphenyl)-6-oxo-1,6-dihydropyridazin-3-yl)methyl)-6-oxo-4-(trifluoromethyl)-1,6-dihydropyrimidin-5-yl)oxy)benzonitrile]",125 nM
12,"Cc1cc(F)cc(-c2cc(Cn3cnc(C(F)(F)F)c(Oc4cc(Cl)cc(C#N)c4)c3=O)n[nH]c2=O)c1 [Example 60, 3-chloro-5-((1-((5-(3-fluoro-5-methylphenyl)-6-oxo-1,6-dihydropyridazin-3-yl)methyl)-6-oxo-4-(trifluoromethyl)-1,6-dihydropyrimidin-5-yl)oxy)benzonitrile]",7 nM
13,"COc1cc(F)cc(-c2cc(Cn3cnc(C(F)(F)F)c(Oc4cc(Cl)cc(C#N)c4)c3=O)n[nH]c2=O)c1 [Example 61, 3-chloro-5-((1-((5-(3-fluoro-5-methoxyphenyl)-6-oxo-1,6-dihydropyridazin-3-yl)methyl)-6-oxo-4-(trifluoromethyl)-1,6-dihydropyrimidin-5-yl)oxy)benzonitrile]",11 nM
14,"N#Cc1cc(Cl)cc(Oc2c(C(F)(F)F)ncn(Cc3cc(-c4ccc(F)c(F)c4F)c(=O)[nH]n3)c2=O)c1 [Example 62, 3-chloro-5-((6-oxo-1-((6-oxo-5-(2,3,4-trifluorophenyl)-1,6-dihydropyridazin-3-yl)methyl)-4-(trifluoromethyl)-1,6-dihydropyrimidin-5-yl)oxy)benzonitrile]",10 nM
15,"COc1ccc(F)c(-c2cc(Cn3cnc(C(F)(F)F)c(Oc4cc(Cl)cc(C#N)c4)c3=O)n[nH]c2=O)c1 [Example 63, 3-chloro-5-((1-((5-(2-fluoro-5-methoxyphenyl)-6-oxo-1,6-dihydropyridazin-3-yl)methyl)-6-oxo-4-(trifluoromethyl)-1,6-dihydropyrimidin-5-yl)oxy)benzonitrile]",10 nM
16,"N#Cc1cc(Cl)cc(Oc2c(C(F)(F)F)ncn(Cc3cc(-c4ccc5c(c4)CCO5)c(=O)[nH]n3)c2=O)c1 [Example 64, 3-chloro-5-((1-((5-(2,3-dihydrobenzofuran-5-yl)-6-oxo-1,6-dihydropyridazin-3-yl)methyl)-6-oxo-4-(trifluoromethyl)-1,6-dihydropyrimidin-5-yl)oxy)benzonitrile]",3 nM
17,"N#Cc1cc(Cl)cc(Oc2c(C(F)(F)F)ncn(Cc3cc(-c4ccn[nH]4)c(=O)[nH]n3)c2=O)c1 [Example 65, 3-chloro-5-((6-oxo-1-((6-oxo-5-(1H-pyrazol-5-yl)-1,6-dihydropyridazin-3-yl)methyl)-4-(trifluoromethyl)-1,6-dihydropyrimidin-5-yl)oxy)benzonitrile]",5 nM
18,"N#Cc1cc(Cl)cc(Oc2c(C(F)(F)F)ncn(Cc3cc(C4CC4)c(=O)[nH]n3)c2=O)c1 [Example 66, 3-chloro-5-((1-((5-cyclopropyl-6-oxo-1,6-dihydropyridazin-3-yl)methyl)-6-oxo-4-(trifluoromethyl)-1,6-dihydropyrimidin-5-yl)oxy)benzonitrile]",7 nM
19,"CS(=O)(=O)c1ccc(-c2cc(Cn3cnc(C(F)(F)F)c(Oc4cc(Cl)cc(C#N)c4)c3=O)n[nH]c2=O)cc1 [Example 67, 3-chloro-5-((1-((5-(4-(methylsulfonyl)phenyl)-6-oxo-1,6-dihydropyridazin-3-yl)methyl)-6-oxo-4-(trifluoromethyl)-1,6-dihydropyrimidin-5-yl)oxy)benzonitrile]",12 nM
20,"N#Cc1cc(Cl)cc(Oc2c(C(F)(F)F)ncn(Cc3cc(-c4ccc(C(O)C(F)F)cc4)c(=O)[nH]n3)c2=O)c1 (centres unmarked) [Example 69, 3-chloro-5-((1-((5-(4-(2,2-difluoro-1-hydroxyethyl)phenyl)-6-oxo-1,6-dihydropyridazin-3-yl)methyl)-6-oxo-4-(trifluoromethyl)-1,6-dihydropyrimidin-5-yl)oxy)benzonitrile]",10 nM
21,"CS(=O)(=O)c1cccc(-c2cc(Cn3cnc(C(F)(F)F)c(Oc4cc(Cl)cc(C#N)c4)c3=O)n[nH]c2=O)c1 [Example 70, 3-chloro-5-((1-((5-(3-(methylsulfonyl)phenyl)-6-oxo-1,6-dihydropyridazin-3-yl)methyl)-6-oxo-4-(trifluoromethyl)-1,6-dihydropyrimidin-5-yl)oxy)benzonitrile]",15 nM
22,"N#Cc1cc(Cl)cc(Oc2c(C(F)(F)F)ncn(Cc3cc(-c4cn[nH]c4)c(=O)[nH]n3)c2=O)c1 [Example 71, 3-chloro-5-((6-oxo-1-((6-oxo-5-(1H-pyrazol-4-yl)-1,6-dihydropyridazin-3-yl)methyl)-4-(trifluoromethyl)-1,6-dihydropyrimidin-5-yl)oxy)benzonitrile]",5 nM
23,"Cn1cc(-c2cc(Cn3cnc(C(F)(F)F)c(Oc4cc(Cl)cc(C#N)c4)c3=O)n[nH]c2=O)cn1 [Example 72, 3-chloro-5-((1-((5-(1-methyl-1H-pyrazol-4-yl)-6-oxo-1,6-dihydropyridazin-3-yl)methyl)-6-oxo-4-(trifluoromethyl)-1,6-dihydropyrimidin-5-yl)oxy)benzonitrile]",7 nM
